We go through two compounds from ChEMBL document CHEMBL4425081, “Design and Development of Microsomal Prostaglandin E2 Synthase-1 Inhibitors: Challenges and Future Directions” (J Med Chem, 2016).

Assay [1] addresses T1, Prostaglandin E synthase (Homo sapiens, UniProt O14684).
T1 sequence (O14684 whole entry): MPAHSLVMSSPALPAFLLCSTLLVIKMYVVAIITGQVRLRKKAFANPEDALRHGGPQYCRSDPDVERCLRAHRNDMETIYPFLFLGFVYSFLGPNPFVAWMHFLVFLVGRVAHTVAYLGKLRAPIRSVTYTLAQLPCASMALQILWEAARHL
Kind of assay: Inhibition of human mPGES-1 expressed in CHO-K1 cells using PGH2 as substrate assessed as PGE2 formation preincubated for 20 mins followed by addition of substrate measured after 60 secs by HTRF assay. Type of assay: cell-based.

For assay [2], the target named is T1, Prostaglandin E synthase. As to the kind of experiment: Inhibition of mPGES-1 in human A549 cells assessed as PGE2[…] formation preincubated for 60 mins prior to IL-beta stimulation measured after 24 hrs by EIA. Type of assay: cell-based.
Assay [3] deals with T2, Arachidonate 5-lipoxygenase-activating protein (Homo sapiens, UniProt P20292).
T2 sequence (P20292 whole entry): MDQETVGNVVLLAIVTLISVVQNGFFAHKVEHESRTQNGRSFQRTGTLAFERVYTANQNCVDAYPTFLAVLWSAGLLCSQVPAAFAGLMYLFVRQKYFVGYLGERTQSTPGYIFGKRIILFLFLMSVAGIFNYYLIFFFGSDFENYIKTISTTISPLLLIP
As to the kind of experiment: Antagonist activity at FLAP in human PMNC assessed as inhibition of A23187-induced LTB4 biosynthesis pre-incubated for 2 mins followed by addition of A23187 measured after 5 mins by radioimmunoassay.

The target in assay [4] is T3, Prostaglandin G/H synthase 1 (Ovis aries, UniProt P05979).
T3 sequence (P05979 whole entry): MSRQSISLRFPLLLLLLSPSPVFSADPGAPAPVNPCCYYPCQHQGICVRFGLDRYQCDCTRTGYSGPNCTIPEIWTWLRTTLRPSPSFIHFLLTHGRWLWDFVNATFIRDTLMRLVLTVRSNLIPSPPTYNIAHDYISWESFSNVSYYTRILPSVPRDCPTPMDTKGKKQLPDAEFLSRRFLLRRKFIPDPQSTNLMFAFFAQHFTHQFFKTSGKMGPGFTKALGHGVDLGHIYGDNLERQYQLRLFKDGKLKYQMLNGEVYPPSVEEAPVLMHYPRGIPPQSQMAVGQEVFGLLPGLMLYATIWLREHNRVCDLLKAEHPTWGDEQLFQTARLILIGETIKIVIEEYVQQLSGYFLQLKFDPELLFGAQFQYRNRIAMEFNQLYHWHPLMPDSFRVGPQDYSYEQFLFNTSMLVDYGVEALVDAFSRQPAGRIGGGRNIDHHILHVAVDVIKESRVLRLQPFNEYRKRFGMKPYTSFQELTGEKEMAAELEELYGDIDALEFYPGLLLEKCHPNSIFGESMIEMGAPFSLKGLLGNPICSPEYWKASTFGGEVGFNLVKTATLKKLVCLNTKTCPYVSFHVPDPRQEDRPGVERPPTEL
Kind of assay: Inhibition of ovine COX-1 assessed as 12-HHT formation preincubated for 5 mins followed by addition of arachidonic acid as substrate measured after 5 mins by HPLC analysis.

By IC50 is commonly meant the concentration needed to halve the response being measured. As to `Cn1c(Nc2cc(CNC(=O)C3(C(F)(F)F)CC3)ccc2Cl)nc2cc(C(=O)NCC3CC3)c(OCC(F)F)cc21`, the values for the 50% inhibitory concentration (IC50) in assay [1] and in assay [2] were 0.1 nM and 1.2 nM, respectively.
Regarding `CC(C)c1ccc2c(c1)c(SC(C)(C)C)c(CC(C)(C)C(=O)O)n2Cc1ccc(Cl)cc1`, the IC50 stood at 2.5 nM in assay [3] and 8000 nM in assay [4].
